According to ChEMBL document CHEMBL1201862, “PubChem BioAssay data set” (2004):
Calls of active or inactive are those of the source.

Key:
[1] = A549 cell cytotoxicity, dose response, cytotoxicity control, plate reader, cherry-pick, antagonist series (AID 743412); type: functional, cell-based
H4 = test: Luminescence Cell-Based Dose Response HTS to Identify Activators of 5'UTR Stem-Loop Driven Prion Protein mRNA Translation in H4 Neuroglioblastoma Cells. [Related pubchem assays: 1829 (Project Summary), 1814 (Primary HTS)]; type: functional; settings: Homo sapiens
INS1 = test: INS-1E survival protection against cytokine death – cell-based, luminescence, retest, dose response (AID 449756); type: functional; settings: Rattus norvegicus;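 also: cell death triggered by IL-1 beta plus TNF-alpha plus IFN-gamma mixture; protective hits raise ATP signal compared with cytokine alone wells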
[2] = viability loss in HEK293 cells – cell-based, plate reader, cherry-picked samples, cytotoxicity control, dose response (AID 743446); type: functional
[3] = toxicity toward HepG2 liver cells – cell-based, plate reader, cherry-pick, antagonist series, cytotoxicity control, dose response (AID 743416); type: functional
[4] = Luminescence Cell-Based Dose Response HTS to Identify Activators of Luciferase Translation or Activity in H4 […] Cells. [Related pubchem assays: 1829 (Project Summary), 1814 (Primary HTS)]; type: functional
[5] = Luminescence Cell-Based Dose Confirmation HTS to Identify Activators of 5'UTR Stem-Loop Driven Alpha-Synuclein mRNA Translation in H4 Neuroglioblastoma Cells. [Related pubchem assays: 1829 (Project Summary), 1814 (Primary HTS)]; type: functional
Protein RecA = biological target: T1, Protein RecA (Mycobacterium tuberculosis, UniProt P9WHJ3); test: Fluorescence Cell-Free Homogeneous Dose Retest to Identify Inhibitors of RecA-Intein Splicing Activity. [Related pubchem assays (depositor defined):AID2097, AID2223, AID489010, AID492950]; type: functional
T1 sequence (P9WHJ3 whole entry): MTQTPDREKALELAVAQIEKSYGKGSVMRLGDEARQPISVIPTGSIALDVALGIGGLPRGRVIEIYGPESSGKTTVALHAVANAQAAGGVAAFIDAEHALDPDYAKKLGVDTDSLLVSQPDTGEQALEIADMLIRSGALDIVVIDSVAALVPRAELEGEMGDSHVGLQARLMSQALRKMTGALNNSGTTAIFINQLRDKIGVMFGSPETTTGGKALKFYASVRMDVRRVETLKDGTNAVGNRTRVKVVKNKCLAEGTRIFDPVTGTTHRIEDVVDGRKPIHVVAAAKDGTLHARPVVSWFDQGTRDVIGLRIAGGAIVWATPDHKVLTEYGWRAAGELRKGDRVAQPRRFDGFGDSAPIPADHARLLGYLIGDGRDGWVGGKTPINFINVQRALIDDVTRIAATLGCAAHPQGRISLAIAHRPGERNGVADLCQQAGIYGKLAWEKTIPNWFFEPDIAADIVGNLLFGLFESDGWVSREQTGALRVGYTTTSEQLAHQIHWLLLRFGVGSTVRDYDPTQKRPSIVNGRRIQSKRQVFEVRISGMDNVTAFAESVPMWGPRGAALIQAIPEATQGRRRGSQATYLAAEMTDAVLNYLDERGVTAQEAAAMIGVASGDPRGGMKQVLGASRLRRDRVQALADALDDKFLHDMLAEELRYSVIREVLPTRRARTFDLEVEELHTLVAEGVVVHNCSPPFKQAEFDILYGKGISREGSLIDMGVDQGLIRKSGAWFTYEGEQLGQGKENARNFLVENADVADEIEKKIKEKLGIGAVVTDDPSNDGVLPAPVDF

[6] = Luminescence Cell-Based Dose Retest to Confirm Inhibitors of Cancer Stem Cells. [Related pubchem assays (depositor defined):AID2717, AID2721]; type: functional; settings: Homo sapiens
Genome polyprotein = Genome polyprotein (dengue virus type 2, UniProt P29990); test: flavivirus cap methylation enzyme inhibition – biochemical, confirmation dose response, primary screen (AID 588689); type: functional
[7] = viability of uninfected HEp-2 cells – cell-based, HTS, cytotoxicity control for RSV inhibitor project, dose response (AID 2410); type: functional; settings: human respiratory syncytial virus
Caspase-6 = Caspase-6 (Homo sapiens, UniProt P55212); test: inhibition of CASP6 peptide cleavage – biochemical, VEID-R110 fluorescence, cherry-pick, dose response (AID 720632)
[8] = biological target: E3 ubiquitin-protein ligase Mdm2 (Homo sapiens, UniProt Q00987); test: MDM2-luc reporter signal enhancers, multi-concentration potency testing, MDM2 ubiquitin-protein ligase inhibitor program, whole-cell format, luminescence detection, 384-well microplate (AID 1394); type: functional;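 also: MDM2 E3 inhibitors raise luminescence so EC50 is for signal enhancement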
[9] = HIV-1 Vif–A3G interaction blockers – biochemical, TR-FRET, GST-Vif 1-94, biotin-A3G peptide, dose response retest, primary screen (AID 1117319); type: functional;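 also: TR-FRET signal of purified GST-Vif binding a biotinylated A3G peptide; inhibitors lower the FRET signal by blocking Vif and A3G binding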
[10] = viability of HCT116 lacking mutant beta-catenin – cell-based, human colon tumor, dose response (AID 1045); type: functional;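 also: HCT116 colon tumor cells with beta catenin knocked out; cells exposed to compound for 60 hours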
[11] = viability of PTEN-deleted HCT116 cells – cell-based, HCT116 PTEN knockout, dose response (AID 1047); type: functional;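 also: HCT116 colon tumor cells with PTEN knocked out; cells exposed to compound for 60 hours before readout; potency for loss of cell viability measured by luminescence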
[12] = potency of ADAM10 substrate cleavage blockers – biochemical, QFRET, dose response (AID 743254);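 also: ADAM10 enzyme with the DM2 quenched FRET peptide as substrate; EDANS fluorescence gain as the protease cuts the substrate; inhibitor potency against ADAM10 proteolytic activity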
Vero [13] = test: cells; type: functional, cell-based; settings: Chlorocebus sabaeus
[14] = biological target: Disintegrin and metalloproteinase domain-containing protein 17 (Homo sapiens, UniProt P78536); test: inhibition of ADAM17 substrate cleavage – biochemical, quenched FRET substrate, counter-screen for ADAM10 exosite inhibitor project, dose response (AID 743253)
[15] = biological target: T2, Heat shock factor protein 1 (Mus musculus, UniProt P38532); test: enhancement of HSF1-driven luciferase signal – cell-based, NIH3T3, luminescence, dose retest, confirmation (AID 435004); type: functional;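 also: stress induced by proteasome inhibitor MG132 added 30 min after compound; luciferase reporter driven by HSF1 response element in NIH3T3 cells; actives raise luminescence as potentiators of the MG132 stress response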
T2 sequence (P38532 whole entry): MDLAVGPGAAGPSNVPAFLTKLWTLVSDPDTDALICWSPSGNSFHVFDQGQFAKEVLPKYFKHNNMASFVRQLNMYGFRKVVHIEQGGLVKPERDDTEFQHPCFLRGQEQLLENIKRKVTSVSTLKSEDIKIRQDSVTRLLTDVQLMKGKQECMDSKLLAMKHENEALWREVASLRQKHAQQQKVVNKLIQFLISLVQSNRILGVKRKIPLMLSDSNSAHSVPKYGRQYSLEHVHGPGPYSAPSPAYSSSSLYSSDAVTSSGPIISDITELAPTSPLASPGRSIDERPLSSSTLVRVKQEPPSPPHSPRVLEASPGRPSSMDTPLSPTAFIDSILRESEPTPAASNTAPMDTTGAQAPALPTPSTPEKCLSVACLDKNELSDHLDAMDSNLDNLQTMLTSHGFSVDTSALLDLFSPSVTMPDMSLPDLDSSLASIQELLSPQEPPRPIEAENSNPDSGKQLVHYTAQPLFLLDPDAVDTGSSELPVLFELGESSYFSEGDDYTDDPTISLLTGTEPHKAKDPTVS

Vero [16] = test: cells; type: functional; settings: Chlorocebus sabaeus
[17] = biological target: Mitogen-activated protein kinase 10 (Homo sapiens, UniProt P53779); test: Dose response biochemical screening assay for inhibitors of c-Jun N-Terminal Kinase 3 (JNK3). [Related pubchem assays: 746 ]
[18] = Trypanosoma cruzi growth suppression in host cells – NIH3T3 host cells, beta-gal luminescence, confirmation (AID 2044); type: functional, cell-based;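 also: intracellular parasites grown in NIH/3T3 mouse fibroblasts as host cells; luminescent beta-galactosidase reporter signal from transgenic T. cruzi replicating inside host cells; inhibitors lower the luminescence signal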
[19] = NIH3T3 cell viability loss – ATP luminescence, mouse fibroblasts, counter-screen, dose response (AID 2010); type: functional, cell-based;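 also: cells exposed to compound for about 90 hours before reading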

Sequence of Mitogen-activated protein kinase 10 (P53779 whole entry): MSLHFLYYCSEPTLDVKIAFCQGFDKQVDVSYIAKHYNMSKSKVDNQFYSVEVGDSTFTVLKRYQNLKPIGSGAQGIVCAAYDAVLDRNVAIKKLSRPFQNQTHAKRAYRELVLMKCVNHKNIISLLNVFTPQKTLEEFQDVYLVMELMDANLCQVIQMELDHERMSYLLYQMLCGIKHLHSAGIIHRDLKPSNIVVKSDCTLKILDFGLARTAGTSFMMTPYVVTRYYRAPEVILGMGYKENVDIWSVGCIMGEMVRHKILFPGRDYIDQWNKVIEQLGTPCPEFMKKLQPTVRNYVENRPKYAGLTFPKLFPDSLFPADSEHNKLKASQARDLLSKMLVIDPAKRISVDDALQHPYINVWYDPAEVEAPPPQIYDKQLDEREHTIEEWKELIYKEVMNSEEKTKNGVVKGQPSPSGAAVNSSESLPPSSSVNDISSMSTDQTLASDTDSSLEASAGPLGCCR
Sequence of Caspase-6 (P55212 24-179 limits assumed): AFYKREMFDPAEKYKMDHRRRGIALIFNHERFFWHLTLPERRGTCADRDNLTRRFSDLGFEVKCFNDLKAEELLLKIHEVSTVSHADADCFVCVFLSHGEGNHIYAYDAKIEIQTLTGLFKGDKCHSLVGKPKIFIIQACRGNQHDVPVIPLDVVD
Sequence of Caspase-6 (P55212 194-293 limits assumed): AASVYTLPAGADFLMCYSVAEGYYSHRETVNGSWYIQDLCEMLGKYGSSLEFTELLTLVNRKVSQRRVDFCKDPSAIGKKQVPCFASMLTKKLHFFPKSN
Sequence of Genome polyprotein (P29990 2492-3391 limits assumed): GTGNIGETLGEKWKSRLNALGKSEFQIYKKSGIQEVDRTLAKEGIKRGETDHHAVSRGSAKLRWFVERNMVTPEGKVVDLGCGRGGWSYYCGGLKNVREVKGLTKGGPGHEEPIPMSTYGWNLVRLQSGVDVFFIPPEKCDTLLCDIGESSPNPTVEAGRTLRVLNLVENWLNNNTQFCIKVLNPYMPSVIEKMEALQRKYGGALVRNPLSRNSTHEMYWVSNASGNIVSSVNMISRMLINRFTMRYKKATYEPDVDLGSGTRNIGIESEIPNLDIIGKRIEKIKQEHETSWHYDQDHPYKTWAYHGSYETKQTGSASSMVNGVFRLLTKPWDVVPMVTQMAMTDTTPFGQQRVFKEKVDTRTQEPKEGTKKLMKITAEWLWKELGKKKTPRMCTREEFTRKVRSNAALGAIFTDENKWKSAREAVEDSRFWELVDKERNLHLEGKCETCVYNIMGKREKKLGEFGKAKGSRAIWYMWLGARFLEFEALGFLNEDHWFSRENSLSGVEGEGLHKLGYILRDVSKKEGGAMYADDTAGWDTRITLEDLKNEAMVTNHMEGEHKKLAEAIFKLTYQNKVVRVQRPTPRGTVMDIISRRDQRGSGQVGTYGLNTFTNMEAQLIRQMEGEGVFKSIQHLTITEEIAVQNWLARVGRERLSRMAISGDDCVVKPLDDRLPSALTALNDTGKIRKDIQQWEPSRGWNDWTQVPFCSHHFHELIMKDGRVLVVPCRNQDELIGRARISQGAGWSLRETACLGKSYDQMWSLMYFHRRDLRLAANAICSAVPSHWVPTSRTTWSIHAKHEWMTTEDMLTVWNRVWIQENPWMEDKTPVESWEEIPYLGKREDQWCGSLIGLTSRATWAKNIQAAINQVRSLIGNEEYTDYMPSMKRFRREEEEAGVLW
Sequence of E3 ubiquitin-protein ligase Mdm2 (Q00987 whole entry): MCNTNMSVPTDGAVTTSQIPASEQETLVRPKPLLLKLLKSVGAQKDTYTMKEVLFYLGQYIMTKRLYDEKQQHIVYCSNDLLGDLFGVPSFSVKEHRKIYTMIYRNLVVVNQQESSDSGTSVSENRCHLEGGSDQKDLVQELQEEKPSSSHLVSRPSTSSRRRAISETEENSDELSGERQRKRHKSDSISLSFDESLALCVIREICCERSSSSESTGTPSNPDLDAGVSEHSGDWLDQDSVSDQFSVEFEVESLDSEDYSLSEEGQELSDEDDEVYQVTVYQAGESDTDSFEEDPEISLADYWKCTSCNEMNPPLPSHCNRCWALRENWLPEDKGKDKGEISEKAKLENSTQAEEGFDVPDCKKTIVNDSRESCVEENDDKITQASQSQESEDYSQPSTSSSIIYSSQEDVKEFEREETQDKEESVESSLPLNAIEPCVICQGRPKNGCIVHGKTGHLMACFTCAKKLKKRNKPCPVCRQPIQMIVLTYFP
Sequence of Disintegrin and metalloproteinase domain-containing protein 17 (P78536 whole entry, the tested form may be a part): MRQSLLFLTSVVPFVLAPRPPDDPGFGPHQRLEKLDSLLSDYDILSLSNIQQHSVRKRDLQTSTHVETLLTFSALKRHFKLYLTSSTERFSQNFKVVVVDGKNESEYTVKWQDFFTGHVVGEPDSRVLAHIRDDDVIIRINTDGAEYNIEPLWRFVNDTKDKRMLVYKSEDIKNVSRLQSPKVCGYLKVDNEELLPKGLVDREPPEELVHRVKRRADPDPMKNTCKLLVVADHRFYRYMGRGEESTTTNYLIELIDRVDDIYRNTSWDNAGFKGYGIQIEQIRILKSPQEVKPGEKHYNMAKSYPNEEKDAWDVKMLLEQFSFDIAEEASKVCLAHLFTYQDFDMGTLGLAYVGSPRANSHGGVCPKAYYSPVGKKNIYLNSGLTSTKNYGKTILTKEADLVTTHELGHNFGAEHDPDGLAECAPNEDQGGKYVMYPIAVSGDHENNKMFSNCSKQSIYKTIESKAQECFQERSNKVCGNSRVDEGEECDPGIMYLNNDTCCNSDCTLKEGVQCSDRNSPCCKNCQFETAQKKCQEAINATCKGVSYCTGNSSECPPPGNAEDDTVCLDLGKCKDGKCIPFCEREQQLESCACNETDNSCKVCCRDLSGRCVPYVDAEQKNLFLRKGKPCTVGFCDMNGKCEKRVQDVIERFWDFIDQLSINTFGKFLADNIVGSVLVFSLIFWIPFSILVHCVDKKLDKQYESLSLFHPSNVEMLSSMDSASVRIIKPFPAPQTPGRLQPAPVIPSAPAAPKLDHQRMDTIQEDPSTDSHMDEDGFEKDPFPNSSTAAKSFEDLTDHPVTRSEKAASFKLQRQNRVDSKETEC

For `COc1cc(NC2CCCCC2O)c2nc(-c3ccc(Cl)cc3)ccc2c1` (stereo not drawn), the AC50 [1] was 20.3 µM (active), the EC50 (H4) was > 60 µM (not active) and the AC50 (INS1) was 3.57 µM (active). For the same compound, the AC50 [2] was > 52 µM (inactive), the AC50 [3] was 26.3 µM (active) and the EC50 [4] was 12.9 µM (active). For the same compound, the EC50 [5] was 9.15 µM (active), the EC50 (Protein RecA) was 0.0728 µM (active) and the AC50 [6] was 2.07 µM (active).

For `CCCCC(NC(=O)Cc1c(C)c2cc3c(-c4ccccc4)coc3c(C)c2oc1=O)C(=O)O` (stereo not drawn), the IC50 (cells) was 45.9 µM (active), the IC50 (Genome polyprotein) was 51 µM (active) and the CC50 [7] was > 50 µM (active). The AC50 (Caspase-6) was 22 µM (active).

With `COc1cc2c(cc1OC)CN(C(=O)c1ccco1)CC2` the EC50 [8] was 11.1 µM (not active).

With `O=C(c1cc2ccccc2oc1=O)N1CCN(c2ccc(N3CCOCC3)nn2)CC1` the IC50 [9] was > 100 µM (active).

For `CCOC(=O)/C(=C\c1ccccc1)NC(=O)c1ccccc1`, the IC50 [9] was > 100 µM (active).

In the case of `Cc1ccc(N(CC(=O)NCCc2ccc(F)cc2)S(=O)(=O)c2ccc(Cl)c([N+](=O)[O-])c2)c(C)c1`, the EC50 [10] is reported as 8.87 µM (active), the EC50 [11] is reported as 14 µM (active) and the IC50 [12] is reported as > 69.5 µM (inactive). The IC50 (Vero [13]) was > 25 µM (active), the IC50 [14] was > 69.5 µM (inactive) and the EC50 [15] was 17.1 µM (active). For the same compound, the CC50 (Vero [16]) was 18.4 µM (active).

For `CC(=O)c1c(C)[nH]c(C(=O)OCn2nnc3ccccc3c2=O)c1C`, the IC50 [17] was 34.2 µM (not active).

For `O=C(Nc1nccs1)c1ccc(Br)o1`, the IC50 [17] was > 31 µM (not active).

With `O=C(N/N=C/c1ccc([N+](=O)[O-])o1)C1CC1` the EC50 [18] was 0.36 µM (active), the EC50 [19] was > 60 µM (not active) and the AC50 (Caspase-6) was 10 µM (active).
